Key:
Test in all cases: relative viability (nuclei count vs DMSO), 5 days (fraction); higher = more cells survive
TPCA-1 + Olaparib = compound: C1=CC(=CC=C1C2=CC(=C(S2)NC(=O)N)C(=O)N)F [TPCA-1] + O=C(c1cc(Cc2n[nH]c(=O)c3ccccc23)ccc1F)N1CCN(C(=O)C2CC2)CC1 [Olaparib] (partner 8 µM)
Outline: (§1)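 A single step with final 0.05% Triton X-100, 1% formaldehyde and 1 ug/ml Hoechst fixed the cells and stained nuclei 5 days after treatment. Lung cancer cell lines in 1536-well plates had been treated by pin tool the day after seeding with one drug alone or a fixed anchor-drug dose plus five library-drug doses (not always all listed) in √10 steps, and nuclei were counted on 4× images. Relative viability is the ratio of nuclei in treated wells to nuclei in vehicle wells, taken as the median of duplicate plates.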

[1] = compound: C[C@]12O[C@H](C[C@]1(O)CO)n1c3ccccc3c3c4c(c5c6ccccc6n2c5c31)CNC4=O [Lestaurtinib] + C[C@@H](Oc1cc(-c2cnn(C3CCNCC3)c2)cnc1N)c1c(Cl)ccc(F)c1Cl [Crizotinib] (partner 1 µM)
Outline: as §1

[2] = compound: C[C@]12O[C@H](C[C@]1(O)CO)n1c3ccccc3c3c4c(c5c6ccccc6n2c5c31)CNC4=O [Lestaurtinib] + C[C@]1(O)C[C@@H](c2nc(-c3ccc4ccc(-c5ccccc5)nc4c3)c3c(N)nccn32)C1 [Linsitinib] (partner 1 µM)
Outline: as §1

[3] = compound: C1/C(=C\C2=CC=CS2)/C(=O)/C(=C/C3=CC=CS3)/C1 + Nc1ncn([C@H]2C[C@H](O)[C@@H](CO)O2)c(=O)n1 [Decitabine] (partner 2 µM)
Outline: as §1

NCI-H441 gave a relative viability (TPCA-1 + Olaparib; first compound 0.04 µM) of 0.461, a relative viability (TPCA-1 + Olaparib; first compound 0.1265 µM) of 0.454 and a relative viability (TPCA-1 + Olaparib; first compound 0.4 µM) of 0.53. It also gave a relative viability (TPCA-1 + Olaparib; first compound 1.265 µM) of 0.443, a relative viability (TPCA-1 + Olaparib; first compound 4 µM) of 0.436 and a relative viability ([1]; first compound 0.005 µM) of 0.912. For the same cell line, the relative viability ([1]; first compound 0.01581 µM) was 0.654, the relative viability ([1]; first compound 0.05 µM) was 0.395 and the relative viability ([1]; first compound 0.1581 µM) was 0.505. The relative viability ([1]; first compound 0.5 µM) was 0.308, the relative viability ([2]; first compound 0.005 µM) was 0.446 and the relative viability ([2]; first compound 0.01581 µM) was 0.547. It also gave a relative viability ([2]; first compound 0.05 µM) of 0.182, a relative viability ([2]; first compound 0.1581 µM) of 0.339 and a relative viability ([2]; first compound 0.5 µM) of 0.27. For the same cell line, the relative viability ([3]; first compound 0.2 µM) was 0.265, the relative viability ([3]; first compound 0.6325 µM) was 0.267 and the relative viability ([3]; first compound 2 µM) was 0.247. The relative viability ([3]; first compound 6.325 µM) was 0.234 and the relative viability ([3]; first compound 20 µM) was 0.414.
In the case of NCI-H460, the relative viability (TPCA-1 + Olaparib; first compound 0.04 µM) is reported as 0.475, the relative viability (TPCA-1 + Olaparib; first compound 0.1265 µM) is reported as 0.465 and the relative viability (TPCA-1 + Olaparib; first compound 0.4 µM) is reported as 0.463. It also gave a relative viability (TPCA-1 + Olaparib; first compound 1.265 µM) of 0.392, a relative viability (TPCA-1 + Olaparib; first compound 4 µM) of 0.278 and a relative viability ([1]; first compound 0.005 µM) of 1.16. It also gave a relative viability ([1]; first compound 0.01581 µM) of 0.905, a relative viability ([1]; first compound 0.05 µM) of 0.448 and a relative viability ([1]; first compound 0.1581 µM) of 0.676. It also gave a relative viability ([1]; first compound 0.5 µM) of 0.516, a relative viability ([2]; first compound 0.005 µM) of 0.24 and a relative viability ([2]; first compound 0.01581 µM) of 0.433. For the same cell line, the relative viability ([2]; first compound 0.05 µM) was 0.17, the relative viability ([2]; first compound 0.1581 µM) was 0.262 and the relative viability ([2]; first compound 0.5 µM) was 0.0291. It also gave a relative viability ([3]; first compound 0.2 µM) of 0.454, a relative viability ([3]; first compound 0.6325 µM) of 0.548 and a relative viability ([3]; first compound 2 µM) of 0.481. The relative viability ([3]; first compound 6.325 µM) was 0.473 and the relative viability ([3]; first compound 20 µM) was 0.449.
NCI-H520 was tested, and the relative viability (TPCA-1 + Olaparib; first compound 0.04 µM) was 0.409, the relative viability (TPCA-1 + Olaparib; first compound 0.1265 µM) was 0.353 and the relative viability (TPCA-1 + Olaparib; first compound 0.4 µM) was 0.391. For the same cell line, the relative viability (TPCA-1 + Olaparib; first compound 1.265 µM) was 0.373, the relative viability (TPCA-1 + Olaparib; first compound 4 µM) was 0.344 and the relative viability ([1]; first compound 0.005 µM) was 0.653. It also gave a relative viability ([1]; first compound 0.01581 µM) of 0.687, a relative viability ([1]; first compound 0.05 µM) of 0.332 and a relative viability ([1]; first compound 0.1581 µM) of 0.42. It also gave a relative viability ([1]; first compound 0.5 µM) of 0.344, a relative viability ([2]; first compound 0.005 µM) of 0.944 and a relative viability ([2]; first compound 0.01581 µM) of 1.14. The relative viability ([2]; first compound 0.05 µM) was 0.632, the relative viability ([2]; first compound 0.1581 µM) was 0.549 and the relative viability ([2]; first compound 0.5 µM) was 0.256. For the same cell line, the relative viability ([3]; first compound 0.2 µM) was 0.597, the relative viability ([3]; first compound 0.6325 µM) was 0.518 and the relative viability ([3]; first compound 2 µM) was 0.548. For the same cell line, the relative viability ([3]; first compound 20 µM) was 0.492.
Work on NCI-H596 yielded a relative viability (TPCA-1 + Olaparib; first compound 0.04 µM) of 0.722, a relative viability (TPCA-1 + Olaparib; first compound 0.1265 µM) of 0.674 and a relative viability (TPCA-1 + Olaparib; first compound 0.4 µM) of 0.671. For the same cell line, the relative viability (TPCA-1 + Olaparib; first compound 1.265 µM) was 0.828, the relative viability (TPCA-1 + Olaparib; first compound 4 µM) was 0.479 and the relative viability ([1]; first compound 0.005 µM) was 0.851. The relative viability ([1]; first compound 0.01581 µM) was 1.05, the relative viability ([1]; first compound 0.05 µM) was 0.805 and the relative viability ([1]; first compound 0.1581 µM) was 1.02. It also gave a relative viability ([1]; first compound 0.5 µM) of 0.923, a relative viability ([2]; first compound 0.005 µM) of 1.04 and a relative viability ([2]; first compound 0.01581 µM) of 1.01. It also gave a relative viability ([2]; first compound 0.05 µM) of 0.882, a relative viability ([2]; first compound 0.1581 µM) of 1.21 and a relative viability ([2]; first compound 0.5 µM) of 0.907. It also gave a relative viability ([3]; first compound 0.2 µM) of 1.04, a relative viability ([3]; first compound 0.6325 µM) of 1.13 and a relative viability ([3]; first compound 2 µM) of 0.992. It also gave a relative viability ([3]; first compound 6.325 µM) of 1.05 and a relative viability ([3]; first compound 20 µM) of 1.02.
NCI-H647 showed a relative viability (TPCA-1 + Olaparib; first compound 0.04 µM) of 0.763, a relative viability (TPCA-1 + Olaparib; first compound 0.1265 µM) of 0.437 and a relative viability (TPCA-1 + Olaparib; first compound 0.4 µM) of 0.66. For the same cell line, the relative viability (TPCA-1 + Olaparib; first compound 1.265 µM) was 0.525, the relative viability (TPCA-1 + Olaparib; first compound 4 µM) was 0.358 and the relative viability ([1]; first compound 0.005 µM) was 0.93. The relative viability ([1]; first compound 0.01581 µM) was 1.12, the relative viability ([1]; first compound 0.05 µM) was 0.624 and the relative viability ([1]; first compound 0.1581 µM) was 0.225. The relative viability ([1]; first compound 0.5 µM) was 0.141, the relative viability ([2]; first compound 0.005 µM) was 1.08 and the relative viability ([2]; first compound 0.01581 µM) was 0.818. For the same cell line, the relative viability ([2]; first compound 0.05 µM) was 0.828, the relative viability ([2]; first compound 0.1581 µM) was 0.265 and the relative viability ([2]; first compound 0.5 µM) was 0.311. The relative viability ([3]; first compound 0.2 µM) was 0.43, the relative viability ([3]; first compound 0.6325 µM) was 0.424 and the relative viability ([3]; first compound 2 µM) was 0.32. It also gave a relative viability ([3]; first compound 6.325 µM) of 0.441 and a relative viability ([3]; first compound 20 µM) of 0.357.
NCI-H650 gave a relative viability (TPCA-1 + Olaparib; first compound 0.04 µM) of 0.4, a relative viability (TPCA-1 + Olaparib; first compound 0.1265 µM) of 0.323 and a relative viability (TPCA-1 + Olaparib; first compound 0.4 µM) of 0.408. For the same cell line, the relative viability (TPCA-1 + Olaparib; first compound 1.265 µM) was 0.385, the relative viability (TPCA-1 + Olaparib; first compound 4 µM) was 0.354 and the relative viability ([1]; first compound 0.005 µM) was 0.744. It also gave a relative viability ([1]; first compound 0.01581 µM) of 0.764, a relative viability ([1]; first compound 0.05 µM) of 0.509 and a relative viability ([1]; first compound 0.1581 µM) of 0.414. The relative viability ([1]; first compound 0.5 µM) was 0.226, the relative viability ([2]; first compound 0.005 µM) was 0.79 and the relative viability ([2]; first compound 0.01581 µM) was 0.915. For the same cell line, the relative viability ([2]; first compound 0.05 µM) was 0.503, the relative viability ([2]; first compound 0.1581 µM) was 0.455 and the relative viability ([2]; first compound 0.5 µM) was 0.179. It also gave a relative viability ([3]; first compound 0.2 µM) of 0.311, a relative viability ([3]; first compound 0.6325 µM) of 0.293 and a relative viability ([3]; first compound 2 µM) of 0.293. For the same cell line, the relative viability ([3]; first compound 6.325 µM) was 0.307 and the relative viability ([3]; first compound 20 µM) was 0.306.
For NCI-H661, the relative viability (TPCA-1 + Olaparib; first compound 0.04 µM) was 0.751, the relative viability (TPCA-1 + Olaparib; first compound 0.1265 µM) was 0.748 and the relative viability (TPCA-1 + Olaparib; first compound 0.4 µM) was 0.77. It also gave a relative viability (TPCA-1 + Olaparib; first compound 1.265 µM) of 0.721, a relative viability (TPCA-1 + Olaparib; first compound 4 µM) of 0.758 and a relative viability ([1]; first compound 0.005 µM) of 1.01. It also gave a relative viability ([1]; first compound 0.01581 µM) of 0.84, a relative viability ([1]; first compound 0.05 µM) of 0.97 and a relative viability ([1]; first compound 0.1581 µM) of 0.927. For the same cell line, the relative viability ([1]; first compound 0.5 µM) was 0.676, the relative viability ([2]; first compound 0.005 µM) was 0.543 and the relative viability ([2]; first compound 0.01581 µM) was 0.609. It also gave a relative viability ([2]; first compound 0.05 µM) of 0.556, a relative viability ([2]; first compound 0.1581 µM) of 0.474 and a relative viability ([2]; first compound 0.5 µM) of 0.262. It also gave a relative viability ([3]; first compound 0.2 µM) of 0.605, a relative viability ([3]; first compound 0.6325 µM) of 0.567 and a relative viability ([3]; first compound 2 µM) of 0.56. The relative viability ([3]; first compound 6.325 µM) was 0.475 and the relative viability ([3]; first compound 20 µM) was 0.496.
NCI-H727 gave a relative viability (TPCA-1 + Olaparib; first compound 0.04 µM) of 0.86, a relative viability (TPCA-1 + Olaparib; first compound 0.1265 µM) of 0.69 and a relative viability (TPCA-1 + Olaparib; first compound 0.4 µM) of 0.666. It also gave a relative viability (TPCA-1 + Olaparib; first compound 1.265 µM) of 0.57, a relative viability (TPCA-1 + Olaparib; first compound 4 µM) of 0.534 and a relative viability ([1]; first compound 0.005 µM) of 1.26. It also gave a relative viability ([1]; first compound 0.01581 µM) of 0.911, a relative viability ([1]; first compound 0.05 µM) of 0.718 and a relative viability ([1]; first compound 0.1581 µM) of 0.613. It also gave a relative viability ([1]; first compound 0.5 µM) of 0.323, a relative viability ([2]; first compound 0.005 µM) of 0.306 and a relative viability ([2]; first compound 0.01581 µM) of 0.255. For the same cell line, the relative viability ([2]; first compound 0.05 µM) was 0.28, the relative viability ([2]; first compound 0.1581 µM) was 0.285 and the relative viability ([2]; first compound 0.5 µM) was 0.18. It also gave a relative viability ([3]; first compound 0.2 µM) of 0.939, a relative viability ([3]; first compound 0.6325 µM) of 0.976 and a relative viability ([3]; first compound 2 µM) of 1.2. It also gave a relative viability ([3]; first compound 20 µM) of 0.981.
